Measurements published in patent publication US12139470B2, “Trioxolane agents” (The Regents of the University of California, priority 2017, dated 2024).
In brackets after ≈: the same amount, converted by molar mass. Where two headings read alike, the source gives them in different places.

Experiments:
Plasmodium berghei = Plasmodium berghei mouse malaria model (Peters test, cures at 30 days); assay type: in vivo; details: po, 720 h, oral gavage, read-out: Mice Cured (%)
Text: The suppressive 4-day “Peters test” ^27 involving P. berghei infected mice provides a convenient and cost effective means to assess the overall in vivo performance of pre-clinical antimalarials. […] Mice were followed for 30 days and judged to have been cured of the infection based on the lack of detectable parasitemia at the end of the study.
Female Swiss Webster Mice (average of 20 g body weight) were infected intraperitoneally with 10^6 Plasmodium berghei-infected erythrocytes collected from a previously infected mouse. […] There were five mice in each test arm. Infections were monitored by daily microscopic evaluation of Giemsa-stained blood smears starting on day seven. Parasitemia were determined by counting the number of infected and uninfected erythrocytes. Body weight was measured over the course of the treatment. […] Animal survival and morbidity were closely monitored for up to 30 days post-infection when the experiment was terminated. In some cases survival is expressed as a PD100 or PD50, the dose that produces respectively 100% or 50% cures in treated animals at 30 days post infection.

[1] = test system: K13 revertant strain bearing the wild type K13 allele; details: pulsed exposure; cited from earlier work
[2] = human, in vivo; cited from earlier work
[3] = Mouse liver microsome assay (half-life, intrinsic clearance)
Text: A second hypothesis regarding trans-R^A substitution (R^A in Scheme 1) was that the resulting de-symmetrized molecular topology would impact the vivo PK/PD properties of these analogs. […] To explore possible metabolic differences, we evaluated selected analogs with mouse liver microsomes and derived intrinsic clearance (CLint) values (Table 1).

[4] = test system: clinical K13-mutant strain; details: pulsed exposure; cited from earlier work
[5] = Kinetic solubility in PBS; assay type: physicochemical; details: kinetic solubility in PBS (pH = 7.4), final DMSO 5%, average of three determinations

SMILES: CC(C)(N)CNC(=O)C[C@H]1CC[C@]2(CC1)OO[C@]1(O2)C2CC3CC(C2)CC1C3 [2a, arterolane, reference compound]
- responders at 13.6 mg/kg/day (Plasmodium berghei; Table 2, tosylate salt, 13.6 mg/kg/day, once a day for four days, no parasitemia at 30 days): 100%
- responders at 1 mg/kg/day (Plasmodium berghei; Table 3, free base, 1 mg/kg/day, four daily doses): 0%
- responders at 4 mg/kg/day (Plasmodium berghei; Table 3, free base, 4 mg/kg/day, four daily doses): 80%
- responders at 6 mg/kg/day (Plasmodium berghei; Table 3, free base, 6 mg/kg/day, four daily doses): 100%
- responders at 10 mg/kg/day (Plasmodium berghei; Table 3, free base, 10 mg/kg/day, four daily doses): 100%
- responders at 4 mg/kg/day (Plasmodium berghei; Table 4, 4 mg/kg/day, once a day for four days): 20%
- responders at 6 mg/kg/day (Plasmodium berghei; Table 4, 6 mg/kg/day, once a day for four days): 80%
- time to reduce early ring viability by 50% (t50) [1]: ~1 h
- half-life [2]: 2 to 3 h
- T1/2 ([3]; half-life when incubated with mouse liver microsomes): 2.13 h
- T1/2 (min) No NADPH ([3]; mouse liver microsomes, no NADPH): stable
- CLint ([3]; mouse, microsomes): 5.4 μL/min/mg of protein
- time to reduce early ring viability by 50% (t50) [4]: ~3 h
- Solubility [5]: 433 µM (≈ 170 µg/mL)
